Values quoted from earlier work as cited in US20260096996A1, “PHARMACEUTICAL COMPOSITIONS OF TRETINOIN AND METHODS OF PRODUCING SUCH COMPOSITIONS” (Douglas Pharmaceuticals Limited, priority 2022, published 2026).

What was measured:
[1] = patients treated for APL

absolute bioavailability (in vivo): approximately 50%
administered radiolabel recovered in the urine (orally administered, human): approximately two-thirds
radioactivity recovered in the urine (within 72 hours, radiolabeled tretinoin 2.75 mg and 50 mg): approximately 63%
radioactivity appeared in the feces (within 6 days, radiolabeled tretinoin 2.75 mg and 50 mg): 31%
patients experiencing nausea and vomiting [1]: More than half
Compound: CC1=C(/C=C/C(C)=C/C=C/C(C)=C/C(=O)O)C(C)(C)CCC1 [tretinoin, all-trans retinoic acid]
